Legend:
[1] = Inhibition of NS5A in HCV genotype 6a infected in human HuH7 replicon cells expressing HCV genotype 1b chimeric replicon assessed as reduction in viral replication after 3 days by luciferase reporter gene assay
[2] = Inhibition of NS5A in HCV genotype 5a infected in human HuH7 replicon cells expressing HCV genotype 1b chimeric replicon assessed as reduction in viral replication after 3 days by luciferase reporter gene assay
[3] = Inhibition of NS5A in HCV genotype 1b infected in human HuH7 replicon cells assessed as reduction in viral replication after 3 days by luciferase reporter gene assay
[4] = Inhibition of NS5A in HCV genotype 2a JFH-1 infected in human Huh7.5.1 cells assessed as reduction in viral replication after 3 days by luciferase reporter gene assay
[5] = Inhibition of NS5A in HCV genotype 1a infected in human HuH7 replicon cells assessed as reduction in viral replication after 3 days by luciferase reporter gene assay
[6] = Inhibition of NS5A in HCV genotype 3a infected in human HuH7 replicon cells expressing HCV genotype 1b chimeric replicon assessed as reduction in viral replication after 3 days by luciferase reporter gene assay

Row | SMILES | EC50 [1] | EC50 [2] | EC50 [3] | EC50 [4] | EC50 [5] | EC50 [6]
1 | COC(=O)N[C@H](C(=O)N1CCC[C@H]1C(=O)Nc1ccc([C@@H]2CC[C@@H](c3ccc(NC(=O)[C@@H]4CCCN4C(=O)[C@@H](NC(=O)OC)C(C)C)cc3)N2c2ccc(C(C)(C)C)cc2)cc1)C(C)C [CHEBI:85183] | 3390 pM | 4 pM | 5 pM | 2.6 pM | 30 pM | 86 pM
2 | COC(=O)N[C@H](C(=O)N1CCC[C@H]1C(=O)Nc1ccc([C@H]2CC[C@@H](c3ccc(NC(=O)[C@@H]4CCCN4C(=O)[C@@H](NC(=O)OC)C(C)C)cc3)N2c2ccc([Si](C)(C)C)cc2)cc1)C(C)C |  |  | 8 pM |  | > 500 pM | 
3 | CC[Si](CC)(CC)c1ccc(N2[C@@H](c3ccc(NC(=O)[C@@H]4CCCN4C(=O)[C@@H](NC(=O)OC)C(C)C)cc3)CC[C@@H]2c2ccc(NC(=O)[C@@H]3CCCN3C(=O)[C@@H](NC(=O)OC)C(C)C)cc2)cc1 |  |  | 6 pM |  | 41 pM | 
4 | COC(=O)N[C@H](C(=O)N1CCC[C@H]1C(=O)Nc1ccc([C@@H]2CC[C@@H](c3ccc(NC(=O)[C@@H]4CCCN4C(=O)[C@@H](NC(=O)OC)C(C)C)cc3)N2c2ccc([Si](C)(C)C)cc2)cc1)C(C)C | 1410 pM | 1 pM | 4 pM | 2.5 pM | 14 pM | 38 pM
5 | COC(=O)N[C@H](C(=O)N1CCC[C@H]1C(=O)Nc1ccc([C@H]2CC[C@H](c3ccc(NC(=O)[C@@H]4CCCN4C(=O)[C@@H](NC(=O)OC)C(C)C)cc3)N2c2ccc([Si](C)(C)C)cc2)cc1)C(C)C |  |  | 7 pM |  | 118 pM | 
6 | CC[Si](CC)(CC)c1ccc(N2[C@H](c3ccc(NC(=O)[C@@H]4CCCN4C(=O)[C@@H](NC(=O)OC)C(C)C)cc3)CC[C@H]2c2ccc(NC(=O)[C@@H]3CCCN3C(=O)[C@@H](NC(=O)OC)C(C)C)cc2)cc1 | 445 pM | 1 pM | 3 pM |  | 7 pM | 10 pM
7 | CC[Si](CC)(CC)c1ccc(N2[C@@H](c3ccc(NC(=O)[C@@H]4CCCN4C(=O)[C@@H](NC(=O)OC)C(C)C)cc3)CC[C@H]2c2ccc(NC(=O)[C@@H]3CCCN3C(=O)[C@@H](NC(=O)OC)C(C)C)cc2)cc1 |  |  | 7 pM |  | > 500 pM | 
8 | COC(=O)N[C@H](C(=O)N1CCC[C@H]1C(=O)Nc1ccc([C@@H]2CC[C@@H](c3ccc(NC(=O)[C@@H]4CCCN4C(=O)[C@@H](NC(=O)OC)C(C)C)cc3)N2c2ccc([Si](C)(C)C(C)(C)C)cc2)cc1)C(C)C | 925 pM | 1 pM | 3 pM | 1.1 pM | 11 pM | 12 pM
